The text below walks through data of PubChem BioAssay (NCI).

“And” between values parts separate entries of the source, which are not always exact repeats. Identical values can stand only once.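 Protocol summary: plate cells (96-well), add compound at 5 concentrations, incubate 48 h, interpolate endpoints linearly. Abbreviation: GI50, concentration required for 50% inhibition of growth. TGI: total growth inhibition.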

Some test systems named below: ACHN renal; SK-OV-3 ovarian; OVCAR-5 ovarian; OVCAR-3 ovarian; DU-145 prostate; CAKI-1 renal; SNB-75 CNS; UACC-257 melanoma; LOX IMVI melanoma; NCI-H226 lung.
Assay in all cases: DTP human tumour cell line panel, 48 h

Turning to `COc1cc(-n2cc(-c3ccc(Cl)cc3)[nH]c2=O)cc(OC)c1OC`, the GI50 (commonly the concentration at which growth is held to half of that of the control) with ACHN renal is 21.6 µM; in the test with SK-OV-3 ovarian, 35.8 µM; in the test with OVCAR-5 ovarian it was 22.7 µM; with OVCAR-3 ovarian it was 21 µM; with DU-145 prostate, 57.4 µM; in the test on CAKI-1 renal, 16.2 µM. Also, the GI50 is 26.2 µM in the test with SNB-75 CNS, 46.8 µM with UACC-257 melanoma, 59.9 µM in the test on LOX IMVI melanoma and 33.2 µM with NCI-H226 lung. The TGI (as a rule, the concentration giving total growth inhibition) in the test on ACHN renal is 46 µM; with SK-OV-3 ovarian, 93 µM; with OVCAR-5 ovarian, 54.1 µM; with OVCAR-3 ovarian, 50.1 µM; in the test on DU-145 prostate it was more than 100 µM; with CAKI-1 renal it was 35.6 µM. In addition, the TGI is 50.5 µM with SNB-75 CNS, more than 100 µM with UACC-257 melanoma, more than 100 µM in the test with LOX IMVI melanoma and 83.3 µM in the test with NCI-H226 lung.

Turning to `CCOC(=O)c1c(C(F)(F)F)n([O-])c2ccc(OC)cc2[n+]1=O`, the GI50 in the test on ACHN renal was 4.09 µM; in the test on SK-OV-3 ovarian, 3.71 µM; with OVCAR-5 ovarian it was 5.49 µM; with OVCAR-3 ovarian, 4.31 µM; with DU-145 prostate it was 5.15 µM; in the test with CAKI-1 renal, 3.46 µM. Further, the GI50 was 3.55 µM in the test with SNB-75 CNS, 3.69 µM in the test on UACC-257 melanoma, 5.22 µM in the test on LOX IMVI melanoma and 4.07 µM in the test with NCI-H226 lung. Besides, the TGI in the test on ACHN renal was 40.2 µM; with SK-OV-3 ovarian, 20.3 µM; in the test on OVCAR-5 ovarian, 48.6 µM; with OVCAR-3 ovarian, 44.8 µM; in the test on DU-145 prostate it was more than 100 µM; in the test on CAKI-1 renal, 19.9 µM. Also, the TGI is 39.8 µM in the test with SNB-75 CNS, more than 100 µM in the test with UACC-257 melanoma, 25.4 µM in the test on LOX IMVI melanoma and 36 µM in the test with NCI-H226 lung.

`C[C@@]12CCC(=O)C=C1CC[C@H]1C2=CC[C@]2(C)C1CC[C@@]2(C)O` (some centres undefined): the TGI in the test on ACHN renal, in the test on SK-OV-3 ovarian, in the test with OVCAR-5 ovarian, in the test with OVCAR-3 ovarian, in the test on DU-145 prostate and in the test with CAKI-1 renal was more than 100 µM throughout. The TGI in the test with SNB-75 CNS, with UACC-257 melanoma, in the test with LOX IMVI melanoma and in the test on NCI-H226 lung was more than 100 µM each time.

Consider `COc1ccc([N+](=O)[O-])c(S(=O)(=O)c2ccc(Cl)cc2)n1`, for which the GI50 was 2.08 µM with ACHN renal; 15.1 µM in the test on SK-OV-3 ovarian; 3.13 µM in the test with OVCAR-5 ovarian; 2.34 µM in the test on OVCAR-3 ovarian; 9.63 µM in the test on DU-145 prostate; 1.61 µM in the test on CAKI-1 renal. Further, the GI50 in the test with SNB-75 CNS was 11 µM; in the test with UACC-257 melanoma, 11.3 µM; in the test with LOX IMVI melanoma, 1.98 µM; in the test with NCI-H226 lung, 10.2 µM. For the same molecule, the TGI with ACHN renal came to 4.11 µM; with SK-OV-3 ovarian it was 31.9 µM; with OVCAR-5 ovarian, 12.3 µM; in the test on OVCAR-3 ovarian it was 5.31 µM; with DU-145 prostate, 21.3 µM; in the test with CAKI-1 renal it was 3.01 µM. Besides, the TGI was determined as 23.6 µM in the test on SNB-75 CNS, 23.7 µM with UACC-257 melanoma, 4.19 µM in the test on LOX IMVI melanoma and 36 µM in the test on NCI-H226 lung.

As for `CSc1nc2sc3cc(Cl)ccc3n2c(=N)c1C#N`, the GI50 with ACHN renal was more than 62.2 µM; in the test with SK-OV-3 ovarian it was 12.5 µM; with OVCAR-5 ovarian, more than 62.7 µM; in the test on OVCAR-3 ovarian it was 11.8 µM; in the test with DU-145 prostate, more than 68.7 µM; in the test with CAKI-1 renal, 17.1 µM. Further, the GI50 in the test with SNB-75 CNS is 2.27 µM; in the test on UACC-257 melanoma, 6.05 µM; with LOX IMVI melanoma it was more than 74.4 µM; in the test on NCI-H226 lung, 12.8 µM. Also, the TGI was more than 100 µM in the test with ACHN renal; more than 100 µM in the test on SK-OV-3 ovarian; more than 100 µM in the test on OVCAR-5 ovarian; more than 100 µM in the test on OVCAR-3 ovarian; more than 100 µM in the test on DU-145 prostate; 88.2 µM in the test with CAKI-1 renal. The TGI in the test on SNB-75 CNS was more than 69.6 µM; with UACC-257 melanoma, more than 100 µM; with LOX IMVI melanoma it was more than 100 µM; in the test on NCI-H226 lung, more than 100 µM.

With `NC1=N/C(=C2/CCNC(=O)c3[nH]c(Br)cc32)C(=O)N1`, the TGI in the test on ACHN renal is more than 100 µM; in the test with SK-OV-3 ovarian it was more than 100 µM; in the test with OVCAR-5 ovarian it was more than 100 µM; with OVCAR-3 ovarian it was 43 µM and 40.1 µM; in the test on DU-145 prostate it was more than 100 µM; in the test with CAKI-1 renal, more than 100 µM. The TGI with SNB-75 CNS is more than 91.5 µM; with UACC-257 melanoma, more than 100 µM; in the test with LOX IMVI melanoma it was more than 62.1 µM; with NCI-H226 lung, more than 100 µM. Further, the GI50 in the test on SK-OV-3 ovarian is 7.66 µM and 16.1 µM; with OVCAR-3 ovarian it was 4.29 µM and 10.7 µM; with CAKI-1 renal, > 33.9 µM and 5.68 µM; in the test on NCI-H226 lung, > 64 µM and 21.8 µM.

Turning to `NS(=O)(=O)c1ccc(CCN=C=S)cc1`, the GI50 is 1.85 µM in the test with ACHN renal; 18.2 µM in the test with SK-OV-3 ovarian; 1.85 µM in the test on OVCAR-5 ovarian; 1.7 µM in the test with OVCAR-3 ovarian; 1.8 µM in the test with DU-145 prostate; 1.53 µM with CAKI-1 renal. Besides, the GI50 with SNB-75 CNS was 1.16 µM; with UACC-257 melanoma it was 2.74 µM; with LOX IMVI melanoma, 1.92 µM; in the test on NCI-H226 lung, 2.84 µM. Moreover, the TGI with ACHN renal turned out to be 3.65 µM; in the test on SK-OV-3 ovarian, 32.4 µM; in the test on OVCAR-5 ovarian it was 3.78 µM; in the test on OVCAR-3 ovarian, 3.13 µM; in the test with DU-145 prostate it was 3.83 µM; in the test on CAKI-1 renal, 3.03 µM. The TGI in the test with SNB-75 CNS stood at 3.16 µM; with UACC-257 melanoma it was 9.24 µM; in the test on LOX IMVI melanoma it was 3.72 µM; with NCI-H226 lung, 8.52 µM.

Regarding `COC(=O)CCC/C=C\C[C@H]1C=CC(=O)/C1=C/C[C@@H](O)C/C=C\CC(F)(F)F`, the GI50 in the test on ACHN renal was 1.95 µM; with SK-OV-3 ovarian, 5.55 µM; in the test with OVCAR-5 ovarian it was 3.42 µM; in the test with OVCAR-3 ovarian it was 1.31 µM; in the test on DU-145 prostate, 3.89 µM; with CAKI-1 renal, 4.07 µM. Besides, the GI50 was 12.4 µM in the test on SNB-75 CNS, 2.54 µM in the test on UACC-257 melanoma, 0.243 µM in the test with LOX IMVI melanoma and 2.08 µM in the test on NCI-H226 lung. Also, the TGI in the test on ACHN renal worked out at 3.97 µM; in the test on SK-OV-3 ovarian, 16.5 µM; in the test with OVCAR-5 ovarian, 9.65 µM; in the test with OVCAR-3 ovarian it was 3.49 µM; in the test with DU-145 prostate, 14.7 µM; with CAKI-1 renal, 14.8 µM. The TGI in the test with SNB-75 CNS stood at 29.3 µM; in the test with UACC-257 melanoma, 7.82 µM; with LOX IMVI melanoma it was 0.668 µM; in the test with NCI-H226 lung it was 4.1 µM.

Regarding `CCCc1nc2c(C)cc(-c3nc4ccccc4n3C)cc2n1Cc1ccc(-c2ccccc2C(=O)O)cc1`, the GI50 in the test on ACHN renal was 25.6 µM; in the test with SK-OV-3 ovarian it was more than 100 µM; in the test with OVCAR-5 ovarian it was more than 100 µM; in the test with OVCAR-3 ovarian, 14.7 µM; with DU-145 prostate, 44 µM; in the test on CAKI-1 renal, 22.6 µM. The GI50 with SNB-75 CNS was 56 µM; with UACC-257 melanoma it was 68.4 µM; with LOX IMVI melanoma, 23.2 µM; in the test on NCI-H226 lung, 32.4 µM. Also, the TGI in the test with ACHN renal was more than 100 µM; in the test with SK-OV-3 ovarian, more than 100 µM; in the test on OVCAR-5 ovarian, more than 100 µM; in the test with OVCAR-3 ovarian it was 37.3 µM; in the test on DU-145 prostate it was more than 100 µM; in the test with CAKI-1 renal it was 61.3 µM. Further, the TGI with SNB-75 CNS, with UACC-257 melanoma, with LOX IMVI melanoma and in the test with NCI-H226 lung was more than 100 µM in each case.
